Source: paper PMC11538706, “Integrated Electrochemical Aptamer Biosensing and Colorimetric pH Monitoring via Hydrogel Microneedle Assays for Assessing Antibiotic Treatment” (Advanced Science, 2024)
Like-named read-outs stand apart in the source and are kept apart here.

Tests used:
[1] = PK analysis: Cmax and AUC from PK models fitted to serum and ISF concentrations; assay type: in vivo, Male Sprague Dawley rats; details: male, Sprague Dawley, rat, iv
Procedure: The estimation of PK parameters, such as the area under the time‐concentration level curve (AUC) and the peak concentrations (Cmax) was performed using two PK models describing the observed patterns of serum and ISF concentrations (Figure S13, Supporting Information) and the Spearman correlation test was used to assess the correlation between PK parameters in serum and ISF.^[ [53] ^] The ISF VAN concentrations used for PK analysis were drawn by interpolating the sensor's response in the VAN calibration curve. The VAN AUC and Cmax from ISF and serum were correlated with correlation values of 0.82 and 0.79, respectively (Figure 5c‐iii).
We also employed the HMN‐Flex assay for detecting GEN in ISF and drawing its PK profile. […] For this purpose, the HMN‐Flex response was monitored every 10 min up to 90 min, followed by two other measurements at 6‐ and 24‐hours (h) postinjection. […] To the best of our knowledge, this is the first time reporting the changes in ISF GEN levels in the rat animal models. […] Importantly, the PK measurements obtained using HMN‐Flex closely matched those derived from conventional blood‐based measurements while the high temporal resolution offered by the HMN‐Flex assay can potentially revolutionize the current TDM.
Two distinct PK models were utilized for this purpose: one for describing antibiotic concentrations in serum, using a 1‐compartment PK model with linear elimination, and another for ISF, consisting of three compartments in series. The model fitting process was carried out using the first‐order conditional estimation method with interaction (FOCEI) routine in Nonmem v7.4, and subsequent PK profiles were simulated from the fitted models using the mrgsolve package in R. AUC and Cmax values were directly derived from the simulated PK profiles, and the correlation between these PK parameters in serum and ISF was assessed using the Spearman correlation test.

[2] = set-up: method as in PMID 24972859, PMID 29019915; details: cited from earlier work
GEN aptamer = assay: Specificity test of GEN aptamer-modified Flex electrode; assay type: binding; details: buffer 1X PBS + 2 mM MgCl2; SWV; TOBI 10 µM, DOX 100 ng/mL
Procedure: Additionally, employing the “dual‐frequency” method reduced the batch‐to‐batch variability and improved the sensor response (Figure S6, Supporting Information).
To determine the signal‐on and signal‐off frequencies for each of these aptamers, the aptamer‐modified Flex electrode was first dipped in a blank buffer and scanned (via SWV) at a range of frequencies (Ref). […] The sensor response at each target concentration and for each frequency was calculated via (I – I0) / I0, where “I” is the observed current (SWV peak height) at each condition, and “I0” is the observed current in the blank buffer. As a result, the frequency of 5 and 100 were selected as the signal‐off and signal‐on for the VAN aptamer. […] Afterward (and for the rest of the experiments), the sensor's response is defined as (I – I0) / I0, where the “I” represents the dual‐frequency current (I signal‐on / I signal‐off) at the experimental condition and “I0” represents the dual frequency current (I signal‐on / I signal‐off) of the (0 µM) buffer. To validate the selectivity of HMN‐Flex for VAN/GEN the aptamer‐functionalized Flex electrodes were subjected to non‐specific targets commonly present in ISF and their responses were recorded.

CNC(C)C1CCC(N)C(OC2C(N)CC(N)C(OC3OCC(C)(O)C(NC)C3O)C2O)O1 (centres unmarked) [GEN, gentamicin]
AUC ([1]; ISF, 50 mg/kg, GEN, Rat # 4, dose 50 mg/kg i.v., read-out: ISF AUC (converted)): 1070 µM·h
Cmax ([1]; ISF, 50 mg/kg, GEN, Rat # 4, dose 50 mg/kg i.v., read-out: ISF Cmax): 221 µM
AUC ([1]; ISF, 50 mg/kg, GEN, Rat # 5, dose 50 mg/kg i.v., read-out: ISF AUC (converted)): 1230 µM·h
Cmax ([1]; ISF, 50 mg/kg, GEN, Rat # 5, dose 50 mg/kg i.v., read-out: ISF Cmax): 387 µM
AUC ([1]; ISF, 100 mg/kg, GEN, Rat # 6, dose 100 mg/kg i.v., read-out: ISF AUC (converted)): 3490 µM·h
Cmax ([1]; ISF, 100 mg/kg, GEN, Rat # 6, dose 100 mg/kg i.v., read-out: ISF Cmax): 886 µM
AUC ([1]; interstitial fluid (ISF), 50 mg/kg, GEN, Rat # 2, dose 50 mg/kg i.v., read-out: ISF AUC (converted)): 509 µM·h
Cmax ([1]; interstitial fluid (ISF), 50 mg/kg, GEN, Rat # 2, dose 50 mg/kg i.v., read-out: ISF Cmax): 148 µM
AUC ([1]; interstitial fluid (ISF), 50 mg/kg, GEN, Rat # 3, dose 50 mg/kg i.v., read-out: ISF AUC (converted)): 776 µM·h
Cmax ([1]; interstitial fluid (ISF), 50 mg/kg, GEN, Rat # 3, dose 50 mg/kg i.v., read-out: ISF Cmax): 253 µM
AUC ([1]; interstitial fluid (ISF), 100 mg/kg, GEN, Rat # 1, dose 100 mg/kg i.v., read-out: ISF AUC (converted)): 848 µM·h
Cmax ([1]; interstitial fluid (ISF), 100 mg/kg, GEN, Rat # 1, dose 100 mg/kg i.v., read-out: ISF Cmax): 279 µM
AUC ([1]; interstitial fluid (ISF), 100 mg/kg, GEN, Rat # 2, dose 100 mg/kg i.v., read-out: ISF AUC (converted)): 827 µM·h
Cmax ([1]; interstitial fluid (ISF), 100 mg/kg, GEN, Rat # 2, dose 100 mg/kg i.v., read-out: ISF Cmax): 324 µM
AUC ([1]; serum, 50 mg/kg, GEN, Rat # 2, dose 50 mg/kg i.v., read-out: Serum AUC (converted)): 467 µM·h
Cmax ([1]; serum, 50 mg/kg, GEN, Rat # 2, dose 50 mg/kg i.v., read-out: Serum Cmax): 680 µM
AUC ([1]; serum, 50 mg/kg, GEN, Rat # 3, dose 50 mg/kg i.v., read-out: Serum AUC (converted)): 321 µM·h
Cmax ([1]; serum, 50 mg/kg, GEN, Rat # 3, dose 50 mg/kg i.v., read-out: Serum Cmax): 807 µM
AUC ([1]; serum, 50 mg/kg, GEN, Rat # 4, dose 50 mg/kg i.v., read-out: Serum AUC (converted)): 108 µM·h
Cmax ([1]; serum, 50 mg/kg, GEN, Rat # 4, dose 50 mg/kg i.v., read-out: Serum Cmax): 268 µM
AUC ([1]; serum, 50 mg/kg, GEN, Rat # 5, dose 50 mg/kg i.v., read-out: Serum AUC (converted)): 2380 µM·h
Cmax ([1]; serum, 50 mg/kg, GEN, Rat # 5, dose 50 mg/kg i.v., read-out: Serum Cmax): 4100 µM
AUC ([1]; serum, 100 mg/kg, GEN, Rat # 1, dose 100 mg/kg i.v., read-out: Serum AUC (converted)): 2410 µM·h
Cmax ([1]; serum, 100 mg/kg, GEN, Rat # 1, dose 100 mg/kg i.v., read-out: Serum Cmax): 1870 µM
AUC ([1]; serum, 100 mg/kg, GEN, Rat # 2, dose 100 mg/kg i.v., read-out: Serum AUC (converted)): 1120 µM·h
Cmax ([1]; serum, 100 mg/kg, GEN, Rat # 2, dose 100 mg/kg i.v., read-out: Serum Cmax): 1320 µM
AUC ([1]; serum, 100 mg/kg, GEN, Rat # 6, dose 100 mg/kg i.v., read-out: Serum AUC (converted)): 3380 µM·h
Cmax ([1]; serum, 100 mg/kg, GEN, Rat # 6, dose 100 mg/kg i.v., read-out: Serum Cmax): 4280 µM
protein binding [2]: 30%

NC[C@H]1O[C@H](O[C@H]2[C@H](O)[C@@H](O[C@H]3O[C@H](CO)[C@@H](O)[C@H](N)[C@H]3O)[C@H](N)C[C@@H]2N)[C@H](N)C[C@@H]1O [TOBI, Tobramycin]
GEN sensor response to non-specific targets (GEN aptamer): increase in current

COc1cccc2c1C(=O)c1c(O)c3c(c(O)c1C2=O)C[C@@](O)(C(=O)CO)C[C@@H]3O[C@H]1C[C@H](N)[C@H](O)[C@H](C)O1 [DOX, Doxorubicin]
GEN sensor response to non-specific targets (GEN aptamer): did not produce a response

CN[C@H](CC(C)C)C(=O)N[C@H]1C(=O)N[C@@H](CC(N)=O)C(=O)N[C@H]2C(=O)N[C@H]3C(=O)N[C@H](C(=O)N[C@H](C(=O)O)c4cc(O)cc(O)c4-c4cc3ccc4O)[C@H](O)c3ccc(c(Cl)c3)Oc3cc2cc(c3O[C@@H]2O[C@H](CO)[C@@H](O)[C@H](O)[C@H]2O[C@H]2C[C@](C)(N)[C@H](O)[C@H](C)O2)Oc2ccc(cc2Cl)[C@H]1O [VAN, vancomycin]
AUC ([1]; in vivo, 15 mg/kg, VAN, Rat # 1, dose 15 mg/kg i.v., read-out: ISF AUC (converted)): 37 µM·h
Cmax ([1]; in vivo, 15 mg/kg, VAN, Rat # 1, dose 15 mg/kg i.v., read-out: ISF Cmax): 28.3 µM
AUC ([1]; in vivo, 15 mg/kg, VAN, Rat # 1, dose 15 mg/kg i.v., read-out: Serum AUC (converted)): 59.1 µM·h
Cmax ([1]; in vivo, 15 mg/kg, VAN, Rat # 1, dose 15 mg/kg i.v., read-out: Serum Cmax): 117 µM
AUC ([1]; in vivo, 15 mg/kg, VAN, Rat # 2, dose 15 mg/kg i.v., read-out: ISF AUC (converted)): 8.72 µM·h
Cmax ([1]; in vivo, 15 mg/kg, VAN, Rat # 2, dose 15 mg/kg i.v., read-out: ISF Cmax): 8.4 µM
AUC ([1]; in vivo, 15 mg/kg, VAN, Rat # 2, dose 15 mg/kg i.v., read-out: Serum AUC (converted)): 50.8 µM·h
Cmax ([1]; in vivo, 15 mg/kg, VAN, Rat # 2, dose 15 mg/kg i.v., read-out: Serum Cmax): 99.9 µM
AUC ([1]; in vivo, 45 mg/kg, VAN, Rat # 1, dose 45 mg/kg i.v., read-out: ISF AUC (converted)): 139 µM·h
Cmax ([1]; in vivo, 45 mg/kg, VAN, Rat # 1, dose 45 mg/kg i.v., read-out: ISF Cmax): 94.5 µM
AUC ([1]; in vivo, 45 mg/kg, VAN, Rat # 1, dose 45 mg/kg i.v., read-out: Serum AUC (converted)): 216 µM·h
Cmax ([1]; in vivo, 45 mg/kg, VAN, Rat # 1, dose 45 mg/kg i.v., read-out: Serum Cmax): 254 µM
AUC ([1]; in vivo, 45 mg/kg, VAN, Rat # 2, dose 45 mg/kg i.v., read-out: ISF AUC (converted)): 51.3 µM·h
Cmax ([1]; in vivo, 45 mg/kg, VAN, Rat # 2, dose 45 mg/kg i.v., read-out: ISF Cmax): 36.5 µM
AUC ([1]; in vivo, 45 mg/kg, VAN, Rat # 2, dose 45 mg/kg i.v., read-out: Serum AUC (converted)): 184 µM·h
Cmax ([1]; in vivo, 45 mg/kg, VAN, Rat # 2, dose 45 mg/kg i.v., read-out: Serum Cmax): 239 µM
